Patent publication EP4588921A1, “FREE BASE CRYSTAL FORM OF POLYCYCLIC COMPOUND OF NITROGEN-CONTAINING HETEROCYCLE, AND PREPARATION METHOD THEREFOR” (Jiangsu Hansoh Pharmaceutical Group Co., Ltd., priority 2022, dated 2024)
Values after ≈ are worked out from the molar mass of the structure shown. Like-named read-outs stand apart in the source and are kept apart here. Each block holds one molecule with its values, some of them ahead of it.

How the values were obtained:
human OX1R = biological target: T1, human OX1R (Homo sapiens, UniProt O43613); test: Calcium current (FLIPR) in cells stably expressing OX1 receptor; type: cell-based; conditions: CHO-K1/human OX1R cells; agonist OX-A at EC80; FLIPR Tetra
T1 construct: expressed in transfected cells; host or cells: CHO-K1
T1 sequence (O43613 1-425): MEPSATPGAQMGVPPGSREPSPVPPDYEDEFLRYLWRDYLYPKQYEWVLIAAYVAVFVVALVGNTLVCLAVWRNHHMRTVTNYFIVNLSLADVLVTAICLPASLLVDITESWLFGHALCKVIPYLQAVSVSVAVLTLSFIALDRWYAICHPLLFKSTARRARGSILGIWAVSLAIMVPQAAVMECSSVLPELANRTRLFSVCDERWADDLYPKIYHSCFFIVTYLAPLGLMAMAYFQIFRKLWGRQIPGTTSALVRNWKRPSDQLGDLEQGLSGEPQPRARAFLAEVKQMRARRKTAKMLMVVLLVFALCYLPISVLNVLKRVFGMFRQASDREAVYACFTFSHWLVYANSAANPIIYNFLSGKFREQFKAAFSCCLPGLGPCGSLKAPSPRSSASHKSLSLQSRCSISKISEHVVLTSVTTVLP
Method: (§1) Determination of the effect of the compounds of the present invention on calcium current in cells stably expressing OX1 and OX2 receptors 1. Experimental objective: The inhibitory effect of the compounds on calcium current activity in CHO-K1/human OX1R and CHO-K1/human OX2R cells was detected. 2. […] 3. […] The IC50 of the positive compounds and test compounds was determined. 4. Experimental data processing method: FLIPR Tetra was used to read and collect the fluorescence signal value (RFU). […] 5.

human OX2R = biological target: T2, human OX2R (Homo sapiens, UniProt O43614); test: Calcium current (FLIPR) in cells stably expressing OX2 receptor; type: cell-based; conditions: for IC50: CHO-K1/human OX2R cells, agonist OX-B at EC80, FLIPR Tetra; for Select fold: OX1R IC50 over OX2R IC50
T2 construct: expressed in transfected cells; host or cells: CHO-K1
T2 sequence (O43614 1-444): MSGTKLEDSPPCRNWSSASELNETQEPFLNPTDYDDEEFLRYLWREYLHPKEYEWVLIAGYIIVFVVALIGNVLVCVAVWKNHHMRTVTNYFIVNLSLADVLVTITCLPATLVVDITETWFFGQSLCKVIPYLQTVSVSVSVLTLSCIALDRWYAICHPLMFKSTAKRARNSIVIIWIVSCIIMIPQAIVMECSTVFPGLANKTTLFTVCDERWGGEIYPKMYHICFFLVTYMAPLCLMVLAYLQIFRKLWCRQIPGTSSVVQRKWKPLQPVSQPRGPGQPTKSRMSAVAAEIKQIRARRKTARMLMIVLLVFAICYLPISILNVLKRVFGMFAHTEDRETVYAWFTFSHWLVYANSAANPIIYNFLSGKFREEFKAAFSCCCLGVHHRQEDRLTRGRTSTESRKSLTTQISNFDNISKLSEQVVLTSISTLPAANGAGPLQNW
Method: as §1

[1] = Solid stability experiment (related substances by HPLC); type: physicochemical
Method: The compound physical and chemical stability at high temperature of 60°C, high humidity of 92.5% RH and both high temperature of 50°C and high humidity of 75% RH of the free base crystal form I and the free base crystal form II were investigated to provide a basis for the storage of the compounds.
About 2 mg of the free base crystal form I and the free base crystal form II were taken respectively, and changes of related substances in the crystal forms at high temperature of 60°C, high humidity of 92.5% RH, and both high temperature of 50°C and high humidity of 75%RH for 7 days and 14 days were investigated. The changes of related substances were calculated by HPLC and the chromatographic peak area normalization method.

[2] = Hygroscopicity experiment; type: physicochemical
Method: The hygroscopicity of the crystal form I and the crystal form II of compound 9 were investigated under different relative humidity to provide a basis for the storage of the compounds.
The crystal form I and the crystal form II of compound 9 were placed in saturated water vapor at different relative humidities to allow the compound to reach a dynamic equilibrium with the water vapor, and the percentage of weight gain after moisture absorption of the compound after equilibrium was calculated.

[3] = Solubility experiments in different media (thermodynamic solubility); type: physicochemical; conditions: thermodynamic from solid
Excerpt: The solubility of the free base crystal form I and the free base crystal form II in media such as pH 1.0-8.0 USP buffer, artificial simulated gastric fluid (FaSSGF), fasted-state artificial simulated intestinal fluid (FaSSIF), fed-state artificial simulated intestinal fluid (FeSSIF) and pure water was compared to provide a basis for the evaluation of drugability.

[4] = PK studies in animals of the free base crystal forms; type: in vivo; conditions: SD rats, plasma; for MRT inf: read-out: MRT 0-∞
Method: The pharmacokinetic of the free base crystal form after a single intravenous administration was studied, and the bioavailability of the free base crystal form I and the free base crystal form II after oral administration were calculated.
The free base crystal form I was suspended with 0.5% CMCC-Na aqueous solution, and the free base crystal form […] aqueous solution. After uniformity, the suspensions were administered intragastrically to rats in triplicate at a dosage of 5 mg/kg (30 mg/kg for suspension) for the free base crystal form I and a dosage of 30 mg/kg (suspension) for the free base crystal form II. The free base crystal form I was dissolved with 20% HP-β-CD aqueous solution to obtain a clear solution, and the clear solution was filtered through a filter membrane. The filtered solution was administered via injection to rats in triplicate.

in vivo = conditions: male, SD, rat, po, 5 mg/kg
Method: SD rats were used as test animals to study the pharmacokinetic behaviour of the compounds of the present invention in rat (plasma) after oral administration at a dose of 5 mg/kg.
The example compound of the present invention, made in house.
Oral administration drug preparation: 20%HP-β-CD in Water
HP-β-CD powder (20 g) was weighed and dissolved in purified water (100 mL), and the mixture was homogeneously mixed by vortex and subjected to ultrasound treatment to afford a clear solution.
The example compound was weighed and added to a 20 mL glass bottle, the solution was added and the mixture was subjected to ultrasound treatment for 10 minutes to afford a colourless clear solution with a concentration of 0.5 mg/mL.
The brain tissues were rinsed with pre-cooled PBS, wiped dry, weighed, and stored at -80°C.
• 1) Acetonitrile (160 µL) was added to plasma sample (40 µL) for precipitation, and the mixture was mixed and centrifuged at 3500 × g for 5 to 20 minutes. • 2) The treated supernatant solution was taken and subjected to LC/MS/MS to analyse the concentrations of the test compounds. LC/MS/MS analysis instrument: AB Sciex API 4000 Qtrap.
• Liquid phase conditions: Shimadzu LC-20AD pump • Chromatographic column: Agilent ZORBAX XDB-C18 (50×2.1 mm, 3.5 µm) mobile phase: liquid A: 0.1% aqueous formic acid solution, liquid B: acetonitrile • Flow rate: 0.4 mL/min • Elution time: 0-4.0 min, the eluent is as follows:
The main pharmacokinetic parameters were calculated using WinNonlin 6.1.

[5] = Room temperature, 92.5%RH, 7 days
[6] = Room temperature, 92.5%RH, 14 days
[7] = Sprague-Dawley (SD), rat, 2 mg/kg, IV, 2MPK, 20%HP-B-CD solution
[8] = Sprague-Dawley (SD), rat, iv, 2 mg/kg, 2MPK, 20%HP-B-CD solution
[9] = Sprague-Dawley (SD), rat, po, 5 mg/kg, 5MPK, 0.5%CMC-Na
[10] = Sprague-Dawley (SD), rat, po, 30 mg/kg, 30MPK, 0.5%CMC-Na suspension

- IC50 (human OX1R): 1200 nM
- IC50 (human OX2R): 25.2 nM
- Select fold (human OX2R): 48
Compound: Cc1nc(N2C[C@H]3CN(C(=O)c4ccc(F)cc4-n4nccn4)C[C@H]3C2)nc(C(C)(C)O)c1F [Compound 10, (4-fluoro-2-(2H-1,2,3-triazol-2-yl)phenyl)((cis)-5-(5-fluoro-4-(2-hydroxypropan-2-yl)-6-methylpyrimidin-2-yl)hexahydropyrrolo [3,4-c]pyrrol-2(1H)-yl)methanone]

- % Increase in total impurity ([1]; 50°C, 75%RH, 7 days): <0.1%
- % Maximum increase in single impurity ([1]; 50°C, 75%RH, 7 days): <0.1%
- % Increase in total impurity ([1]; 50°C, 75%RH, 14 days): <0.1%
- % Maximum increase in single impurity ([1]; 50°C, 75%RH, 14 days): <0.1%
- % Increase in total impurity ([1]; 60°C, 7 days): <0.1%
- % Maximum increase in single impurity ([1]; 60°C, 7 days): <0.1%
- % Increase in total impurity ([1]; 60°C, 14 days): <0.1%
- % Maximum increase in single impurity ([1]; 60°C, 14 days): <0.1%
- % Increase in total impurity [1, 5]: <0.1%
- % Maximum increase in single impurity [1, 5]: <0.1%
- % Increase in total impurity [1, 6]: <0.1%
- % Maximum increase in single impurity [1, 6]: <0.1%
- change in the XRPD pattern (crystal form transformation) ([2]; after 2 cycles of moisture absorption and desorption at 0%-95% relative humidity): no change in the XRPD pattern
- weight gain after moisture absorption ([2]; at 80%RH): about 0.3263%
- solubility at 2 h ([3]; FaSSCoF, 37 °C, fassgf or other biorelevant, FaSSCoF, read-out: Solubility of free base crystal form I): 118 µg/mL (≈ 253 µM)
- solubility at 2 h ([3]; FaSSGF (artificial simulated gastric fluid), 37 °C, fassgf or other biorelevant, FaSSGF, read-out: Solubility of free base crystal form I): 269 µg/mL (≈ 577 µM)
- solubility at 2 h ([3]; FaSSIF, 37 °C, fassif, FaSSIF, read-out: Solubility of free base crystal form I): 247 µg/mL (≈ 529 µM)
- solubility at 2 h ([3]; FeSSCoF, 37 °C, fassgf or other biorelevant, FeSSCoF, read-out: Solubility of free base crystal form I): 182 µg/mL (≈ 390 µM)
- solubility at 2 h ([3]; FeSSIF, 37 °C, fessif, FeSSIF, read-out: Solubility of free base crystal form I): 311 µg/mL (≈ 667 µM)
- solubility at 2 h ([3]; USP buffer pH 1.0, 37 °C, pH 1, simulated gastric fluid, pH 1.0, read-out: Solubility of free base crystal form I): 799 µg/mL (≈ 1710 µM)
- solubility at 2 h ([3]; USP buffer pH 2.0, 37 °C, pH 2, simulated gastric fluid, pH 2.0, read-out: Solubility of free base crystal form I): 141 µg/mL (≈ 302 µM)
- solubility at 2 h ([3]; USP buffer pH 3.0, 37 °C, pH 3, aqueous buffer, pH 3.0, read-out: Solubility of free base crystal form I): 87 µg/mL (≈ 186 µM)
- solubility at 2 h ([3]; USP buffer pH 4.5, 37 °C, pH 4.5, aqueous buffer, pH 4.5, read-out: Solubility of free base crystal form I): 80 µg/mL (≈ 171 µM)
- solubility at 2 h ([3]; USP buffer pH 6.8, 37 °C, pH 6.8, aqueous buffer, pH 6.8, read-out: Solubility of free base crystal form I): 81 µg/mL (≈ 174 µM)
- solubility at 2 h ([3]; USP buffer, 37 °C, pH 4, aqueous buffer, pH 4.0, read-out: Solubility of free base crystal form I): 73 µg/mL (≈ 156 µM)
- solubility at 2 h ([3]; USP buffer, 37 °C, pH 5, aqueous buffer, pH 5.0, read-out: Solubility of free base crystal form I): 88 µg/mL (≈ 189 µM)
- solubility at 2 h ([3]; USP buffer, 37 °C, pH 6, aqueous buffer, pH 6.0, read-out: Solubility of free base crystal form I): 70 µg/mL (≈ 150 µM)
- solubility at 2 h ([3]; USP buffer, 37 °C, pH 7, aqueous buffer, pH 7.0, read-out: Solubility of free base crystal form I): 75 µg/mL (≈ 161 µM)
- solubility at 2 h ([3]; USP buffer, 37 °C, pH 8, aqueous buffer, pH 8.0, read-out: Solubility of free base crystal form I): 58 µg/mL (≈ 124 µM)
- solubility at 2 h ([3]; water, 37 °C, water, H2O, read-out: Solubility of free base crystal form I): 91 µg/mL (≈ 195 µM)
- Tmax ([4]; PO, 30MPK, 0.5%CMC-Na suspension): 2.0 h
- C0 [4, 7]: 2910 ng/mL
- clearance [4, 7]: 15 mL/min/kg
- Vd ([4]; Sprague-Dawley (SD), rat, 2 mg/kg, IV, 2MPK, 20%HP-B-CD solution, read-out: Vss): 0.8 L/kg
- Tmax ([4]; Sprague-Dawley (SD), rat, 5 mg/kg, PO, 5MPK, 0.5%CMC-Na, read-out: tmax): 0.5 h
- AUC(0-inf) [4, 8]: 2280 ng·h/mL
- AUC(0-t) [4, 8]: 2280 ng·h/mL
- half-life [4, 8]: 0.9 h
- MRT inf ([4]; Sprague-Dawley (SD), rat, iv, 2 mg/kg, IV, 2MPK, 20%HP-B-CD solution): 0.9 h
- AUC(0-inf) [4, 9]: 2410 ng·h/mL
- AUC(0-t) [4, 9]: 2390 ng·h/mL
- Cmax [4, 9]: 787 ng/mL
- bioavailability [4, 9]: 7%
- half-life [4, 9]: 1.2 h
- MRT inf ([4]; Sprague-Dawley (SD), rat, po, 5 mg/kg, PO, 5MPK, 0.5%CMC-Na): 2.2 h
- AUC(0-inf) [4, 10]: 31000 ng·h/mL
- AUC(0-t) [4, 10]: 28400 ng·h/mL
- Cmax [4, 10]: 6010 ng/mL
- bioavailability [4, 10]: 90.4%
- half-life [4, 10]: 1.9 h
- MRT inf ([4]; Sprague-Dawley (SD), rat, po, 30 mg/kg, PO, 30MPK, 0.5%CMC-Na suspension): 3.8 h
Compound: CC(C)(O)c1nc(N2C[C@H]3CN(C(=O)c4c(F)cccc4-c4ncccn4)C[C@H]3C2)ncc1F [free base crystal form I, ((3aR,6aS)-5-(5-fluoro-4-(2-hydroxyprop-2-yl)pyrimidin-2-yl)hexahydropyrrolo [3,4-c]pyrrol-2(1H)-yl)(2-fluoro-6-(pyrimidin-2-yl)phenyl)methanone]

- IC50 (human OX1R): 263 nM
- IC50 (human OX2R): 7.26 nM
- Select fold (human OX2R): 36
- AUC(0-inf) (in vivo): 335 ng·h/mL
- Cmax (in vivo): 420 ng/mL
- Tmax (in vivo): 0.5 h
Compound: Cc1nc(N2C[C@H]3CN(C(=O)c4c(F)cccc4-c4ccccn4)C[C@H]3C2)nc(C(C)(C)O)c1F [Compound 12, ((3aR,6aS)-5-(5-fluoro-4-(2-hydroxypropan-2-yl)-6-methylpyrimidin-2-yl)hexahydropyrrolo[3,4-c]pyrrol-2(1H)-yl)(2-fluoro-6-(pyridin-2-yl)phenyl)methanone]
